{"source": "patent US7947308B2", "about": "“Effervescent powders for inhalation” (priority 2005, dated 2011)", "assay": "In vitro aerosol deposition, Mark II Andersen Cascade Impactor (MMAD, FPF, GSD)", "assay_type": "physicochemical", "settings": "spray-dried carrier particles containing ciprofloxacin; UV assay of impactor plates", "description": "The pulmonary deposition of the empty effervescent carrier particles and the carrier particles containing nanoparticles were investigated in vitro by measuring the Mass Median Aerodynamic Diameter (MMAD) using a Mark II Andersen Cascade Impactor (Thermo Andersen, Smyrna, Ga.) in combination with a new high efficiency inhaler (described in U.S. Patent Application Publication No. 2004/0107963 to Finlay, W. H. & Wang, Z., filed Dec. 2, 2003, entitled “Device and Method for Deagglomeration of Powder for Inhalation”, the contents of which are herein incorporated by reference); Wang, Z., Grgic, B., and Finlay, W. H. (2006) A Dry Powder Inhaler with Reduced Mouth-throat Deposition. […]\nThe MMAD was calculated by linear interpolation of the cumulative mass distribution to obtain the particle size for which the cumulative mass under this size was 50% (Sham, J.-H., Zhang, Y., Finlay, W. H., Roa, W. H. & Lobenberg, R. (2004) Formulation and characterization of spray-dried powders containing nanoparticles for aerosol delivery to the lung. International Journal of Pharmaceutics. 269: 457-467). […]\nParticle size and FPF were determined as noted above in Example 1. The dispersibility and content of ciprofloxacin of the spray-dried powders was determined using a Mark II Andersen impactor. […] The MMAD was calculated by a nonlinear regression fit of a log-normal function to the data. […]"}
{"smiles": "O=C(O)c1cn(C2CC2)c2cc(N3CCNCC3)c(F)cc2c1=O", "note": "[ciprofloxacin]", "values": [{"measurement": "range size of most of the particles (cascade impactor)", "value": "4.9+/−1 μm"}]}
